pEC50: −log10 of the molar value. Read-outs that look alike come from different tables or passages of the source.
Target: T1, F508delCFTR (Homo sapiens, UniProt P13569, DEL508-508)
T1 construct: expressed in transfected cells; host or cells: CFBE41o- human lung-derived epithelial cells (CFBE4lo-F508delCFTR-HRP), doxycycline-inducible
Assay: Cell Surface Expression-Horse Radish Peroxidase (CSE-HRP) Assay;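 on Maximum % activity (with co-corrector): co-corrector and positive control are both the same reference corrector at 2 µM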;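 on Maximum % activity (without co-corrector): percent of the 2 µM on-plate positive control corrector response above DMSO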
Assay type: cell-based
Details: for Emax / Maximum % activity (with co-corrector): maximum at any tested concentration, normalized to on-plate positive control; for Emax: read-out: Maximum % activity (without co-corrector)
Protocol: Cell Surface Expression-Horse Radish Peroxidase (CSE-HRP) Assay;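 on Maximum % activity (with co-corrector): co-corrector and positive control are both the same reference corrector at 2 µM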;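 on Maximum % activity (without co-corrector): percent of the 2 µM on-plate positive control corrector response above DMSO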
The development was achieved by expressing the F508delCFTR mutation along with a horseradish peroxidase (HRP) in the fourth exofacial loop, and then measuring the HRP activity using luminescence readout from these cells, CFBE4lo-F508delCFTR-HRP, that were incubated overnight with the test corrector compounds, either without or with the co-corrector. […] The test compounds were then added either without or with a co-corrector at the required concentrations and further incubated for 18-24 hours at 33° C. The highest concentration tested was 20 μM with an 8-point concentration response curve using a 3-fold dilution in both the test compound without or with the co-corrector. Three replicate plates were run to determine one EC50. All plates contained negative controls (dimethyl sulfoxide, DMSO) and positive control (2 μM of 3-[(2R,4R)-4-({[1-(2,2-difluoro-1,3-benzodioxol-5-yl)cyclopropyl]carbonyl}amino)-7-methoxy-3,4-dihydro-2H-chromen-2-yl]benzoic acid) as well as on-plate concentration response of the positive control. […] The raw counts from the experiment were analyzed using Accelrys® Assay Explorer v3.3.
1−[3*SDPositive Control+3*SDNegative Control/Absolute(MeanPositive Control−MeanNegative Control)]
wherein “SD” is standard deviation.
The % activity measured at each of the 8 test concentrations of the test compound added either without or with a co-corrector (2 μM of 3-[(2R,4R)-4-({[1-(2,2-difluoro-1,3-benzodioxol-5-yl)cyclopropyl]carbonyl}amino)-7-methoxy-3,4-dihydro-2H-chromen-2-yl]benzoic acid) was normalized to the on-plate positive control using the following formulae:
% activity(Test compound without co-corrector)=[(test compound without co-corrector response−DMSO response)/(positive control response−DMSO response)]*100
% activity(Test compound with co-corrector)=[(test compound with co-corrector response−DMSO response)/(positive control response−DMSO response)]*100
The maximum % activity achieved for the test compound either without or with a co-corrector at any tested concentration is presented in Table 4 along with the respective EC50's calculated using the following general sigmoidal curve with variable Hill slope equation (described as Model 42 in the Accelrys® Assay Explorer v3.3 software):
General sigmoidal curve with concentration, response, top, bottom, EC50 and Hill slope. This model describes a sigmoidal curve with an adjustable baseline, a. The equation can be used to fit curves where response is either increasing or decreasing with respect to the independent variable, “x”.
“x” is a concentration of drug under test. “y” is the response. “a” is the maximum response, and “d” is the minimum response “c” is the inflection point (EC50) for the curve. That is, “y” is halfway between the lower and upper asymptotes when x=c. “b” is the slope-factor or Hill coefficient. The sign of b is positive when the response increases with increasing dose and is negative when the response decreases with increasing dose (inhibition).

[1] = test compound without co-corrector
[2] = test compound without co-corrector, read-out: EC50 (without co-corrector)
[3] = with co-corrector (2 μM of 3-[(2R,4R)-4-({[1-(2,2-difluoro-1,3-benzodioxol-5-yl)cyclopropyl]carbonyl}amino)-7-methoxy-3,4-dihydro-2H-chromen-2-yl]benzoic acid)
[4] = with co-corrector (2 μM of 3-[(2R,4R)-4-({[1-(2,2-difluoro-1,3-benzodioxol-5-yl)cyclopropyl]carbonyl}amino)-7-methoxy-3,4-dihydro-2H-chromen-2-yl]benzoic acid), read-out: EC50 (with co-corrector)
[5] = CSE-HRP, test compound without co-corrector, read-out: EC50 (without co-corrector)
[6] = CSE-HRP, with co-corrector (2 μM of 3-[(2R,4R)-4-({[1-(2,2-difluoro-1,3-benzodioxol-5-yl)cyclopropyl]carbonyl}amino)-7-methoxy-3,4-dihydro-2H-chromen-2-yl]benzoic acid), read-out: EC50 (with co-corrector)
[7] = CSE-HRP, with co-corrector (2 μM)

T1 sequence (P13569 with tags, fused parts or gaps DEL508-508): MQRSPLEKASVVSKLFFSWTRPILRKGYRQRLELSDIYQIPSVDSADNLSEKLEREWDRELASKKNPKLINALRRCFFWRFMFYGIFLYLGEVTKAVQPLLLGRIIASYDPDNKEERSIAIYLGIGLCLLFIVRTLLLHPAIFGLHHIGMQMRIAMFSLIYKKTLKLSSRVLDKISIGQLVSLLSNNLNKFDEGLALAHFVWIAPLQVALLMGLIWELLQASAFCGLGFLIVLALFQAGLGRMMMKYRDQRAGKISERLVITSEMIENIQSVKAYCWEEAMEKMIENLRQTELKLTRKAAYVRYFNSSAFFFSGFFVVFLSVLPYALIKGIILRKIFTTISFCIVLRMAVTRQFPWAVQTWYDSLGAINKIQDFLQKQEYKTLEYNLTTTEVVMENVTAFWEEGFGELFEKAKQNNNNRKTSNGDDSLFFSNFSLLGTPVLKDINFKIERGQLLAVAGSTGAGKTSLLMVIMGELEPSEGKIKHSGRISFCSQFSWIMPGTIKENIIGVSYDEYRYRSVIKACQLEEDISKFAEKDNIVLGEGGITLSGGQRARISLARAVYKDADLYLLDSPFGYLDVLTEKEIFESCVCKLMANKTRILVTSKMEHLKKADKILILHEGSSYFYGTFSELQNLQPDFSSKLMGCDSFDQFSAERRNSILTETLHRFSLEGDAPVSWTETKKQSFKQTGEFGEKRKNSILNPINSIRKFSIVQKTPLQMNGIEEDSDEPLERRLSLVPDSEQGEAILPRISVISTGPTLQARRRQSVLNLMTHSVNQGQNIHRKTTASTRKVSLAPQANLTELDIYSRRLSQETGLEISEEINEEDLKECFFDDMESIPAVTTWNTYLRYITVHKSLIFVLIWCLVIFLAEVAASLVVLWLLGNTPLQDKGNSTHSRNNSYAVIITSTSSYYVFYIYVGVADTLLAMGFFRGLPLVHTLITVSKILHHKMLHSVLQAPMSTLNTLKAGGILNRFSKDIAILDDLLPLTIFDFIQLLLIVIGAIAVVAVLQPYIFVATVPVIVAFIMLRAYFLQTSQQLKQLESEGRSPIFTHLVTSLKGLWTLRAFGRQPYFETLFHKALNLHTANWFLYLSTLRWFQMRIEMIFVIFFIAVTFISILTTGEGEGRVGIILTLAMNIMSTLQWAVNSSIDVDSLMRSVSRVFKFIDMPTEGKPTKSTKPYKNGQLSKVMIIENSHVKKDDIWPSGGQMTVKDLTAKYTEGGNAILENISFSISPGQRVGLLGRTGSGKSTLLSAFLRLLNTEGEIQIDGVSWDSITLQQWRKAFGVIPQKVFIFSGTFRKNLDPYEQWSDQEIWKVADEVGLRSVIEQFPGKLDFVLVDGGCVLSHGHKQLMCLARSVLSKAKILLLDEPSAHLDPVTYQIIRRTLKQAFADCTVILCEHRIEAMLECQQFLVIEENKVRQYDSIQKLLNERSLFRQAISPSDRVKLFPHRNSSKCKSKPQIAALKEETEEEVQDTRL

Structure (SMILES) | Emax [1] | pEC50 [2] | Maximum % activity (with co-corrector) [3] | pEC50 [4] | Maximum % activity (with co-corrector) (with co-corrector (2 μM)) | Emax (without co-corrector) | pEC50 [5] | pEC50 [6] | Maximum % activity (with co-corrector) [7] | Emax (CSE-HRP, without co-corrector)
COc1ccc(C(C)(C)C)cc1CN[C@H]1[C@H](C(C)(C)C)[C@@H](C(=O)O)N(C(=O)C23CC(F)(C2)C3)[C@H]1c1ccccc1 [II-498] | 100 to 200% | 5.00 to 6.00 | +++ (≥350) | 5.00 to 6.00 |  |  |  |  |  | 
CC(C)(C)[C@H]1[C@H](NCc2ccc(F)cc2C#N)[C@H](c2ccccc2)N(C(=O)C2CCCCC2)[C@@H]1C(=O)O [III-127] | < 100% | < 5.00 |  | < 5.00 | + (<150) |  |  |  |  | 
COc1ccc(C(C)(C)C)cc1CN[C@H]1[C@H](C(C)(C)C)[C@@H](C(=O)O)N(C(=O)OC2CCCC2)[C@H]1c1ccccc1 [Example I-119] |  | 5.00 to 6.00 |  | > 6.00 | +++ (≥350) | > 200% |  |  |  | 
COc1ccc(C(C)(C)C)cc1CN[C@H]1[C@H](C(C)(C)C)[C@@H](C(=O)O)N(C(=O)OC(C)C)[C@H]1c1cccnc1OC(C)C [III-229] | > 200% | 5.00 to 6.00 |  | > 6.00 | +++ (≥350) |  |  |  |  | 
COc1ccc(C(C)(C)C)cc1CN[C@H]1[C@H](C(C)(C)C)[C@@H](C(=O)O)N(C(=O)C2CC2(C)C)[C@H]1c1ccccc1 (stereo partly shown) [II-309] |  |  |  |  |  |  | 5.00 to 6.00 | 5.00 to 6.00 | +++ (≥350) | > 200%
COc1ccc(C(F)(F)F)cc1CN[C@H]1[C@H](C(C)(C)C)[C@@H](C(=O)O)N(C(=O)OC(C)C)[C@H]1c1cccnc1OC(C)C [Example 78, (2S,3S,4S,5S)-3-tert-butyl-4-({[2-methoxy-5-(trifluoromethyl)phenyl]methyl}amino)-1-{[(propan-2-yl)oxy]carbonyl}-5-{2-[(propan-2-yl)oxy]pyridin-3-yl}pyrrolidine-2-carboxylic acid] |  | 5.00 to 6.00 |  | 5.00 to 6.00 | +++ (≥350) | > 200% |  |  |  | 
COc1ccc(Cl)cc1CN[C@H]1[C@H](C(C)(C)C)[C@@H](C(=O)O)N(C(=O)OC(C)C)[C@H]1c1ccccc1C(C)C [II-567] | > 200% | 5.00 to 6.00 | +++ (≥350) | 5.00 to 6.00 |  |  |  |  |  | 
COc1cc(C(F)(F)F)ccc1CN[C@@H]1[C@@H](C(C)(C)C)[C@H](C(=O)O)N(C(=O)OC(C)C)[C@@H]1c1ccccc1N(C)C (racemic) [II-57] |  |  |  |  |  |  | 5.00 to 6.00 | 5.00 to 6.00 | +++ (≥350) | 100 to 200%
COc1ccc(C(C)(C)C)cc1CN[C@H]1[C@H](C(C)(C)C)[C@@H](C(=O)O)N(C(=O)c2cccnc2)[C@H]1c1ccccc1 [Example I-64] |  | 5.00 to 6.00 |  | 5.00 to 6.00 | +++ (≥350) | < 100% |  |  |  | 
COc1cc(C(F)(F)F)cc(N[C@@H]2[C@@H](C(C)(C)C)[C@H](C(=O)O)N(C(=O)C3CCCCC3)[C@@H]2c2ccccc2)n1 (racemic) [Example 2, rac-(2R,3R,4R,5R)-3-tert-butyl-1-(cyclohexanecarbonyl)-4-{[6-methoxy-4-(trifluoromethyl)pyridin-2-yl]amino}-5-phenylpyrrolidine-2-carboxylic acid] |  | 5.00 to 6.00 |  | 5.00 to 6.00 | +++ (≥350) | < 100% |  |  |  | 
COc1ncc(C(F)(F)F)cc1CN[C@H]1[C@H](C(C)(C)C)[C@@H](C(=O)O)N(C(=O)[C@H](OC)c2ccccc2)[C@H]1c1ccccc1 [II-83] |  |  |  |  |  |  | 5.00 to 6.00 | > 6.00 | +++ (≥350) | > 200%
COc1ccc(C(C)(C)C)cc1CN[C@H]1[C@H](C(C)(C)C)[C@@H](C(=O)O)N(C(=O)CC(C)C)[C@H]1c1ccccc1 [II-564] | > 200% | 5.00 to 6.00 | +++ (≥350) | 5.00 to 6.00 |  |  |  |  |  | 
COc1ccc([Si](C)(C)C)cc1CN[C@H]1[C@H](C(C)(C)C)[C@@H](C(=O)O)N(C(=O)[C@H]2CCCC(F)(F)C2)[C@H]1c1ccccc1 [II-441] |  | > 6.00 |  | > 6.00 |  |  |  |  |  | 

Second part, the compound after the results:

Emax [1] | pEC50 [2] | Maximum % activity (with co-corrector) [3] | pEC50 [4] | Maximum % activity (with co-corrector) (with co-corrector (2 μM)) | Emax (without co-corrector) | pEC50 [5] | pEC50 [6] | Maximum % activity (with co-corrector) [7] | Emax (CSE-HRP, without co-corrector) | Structure (SMILES)
 | 5.00 to 6.00 |  | 5.00 to 6.00 | ++ (≥150 and <350) | < 100% |  |  |  |  | COc1ncc(C(C)(C)C)cc1N[C@H]1[C@H](C(C)(C)C)[C@@H](C(=O)O)N(C(=O)C2CCCCC2)[C@H]1c1ccccc1 [Example 55, (2S,3S,4S,5S)-3-tert-butyl-4-[(5-tert-butyl-2-methoxypyridin-3-yl)amino]-1-(cyclohexanecarbonyl)-5-phenylpyrrolidine-2-carboxylic acid]
 |  |  |  |  |  | 5.00 to 6.00 | > 6.00 | +++ (≥350) | 100 to 200% | COc1cc(C(F)(F)F)ccc1CN[C@H]1[C@H](C(C)(C)C)[C@@H](C(=O)O)N(C(=O)[C@@H]2CCCCO2)[C@H]1c1ccccc1Br [Example I-289]
> 200% | 5.00 to 6.00 | +++ (≥350) | 5.00 to 6.00 |  |  |  |  |  |  | COc1ncc(C2CCC2)cc1CN[C@H]1[C@H](C(C)(C)C)[C@@H](C(=O)O)N(C(=O)C2CCCCO2)[C@H]1c1cccnc1N(C)C (stereo partly shown) [II-491]
> 200% | 5.00 to 6.00 |  | 5.00 to 6.00 | +++ (≥350) |  |  |  |  |  | COc1ccc(C2(C)CCC2)cc1CN[C@H]1[C@H](C(C)(C)C)[C@@H](C(=O)O)N(C(=O)[C@@H]2CCCCO2)[C@H]1c1cccnc1OC [III-233]
 | < 5.00 |  | < 5.00 | + (<150) | < 100% |  |  |  |  | COc1ccc(-c2ccnnc2)cc1CN[C@H]1[C@H](C(C)(C)C)[C@@H](C(=O)O)N(C(=O)C2CCCCC2)[C@H]1c1ccccc1 [Example I-125]
> 200% | 5.00 to 6.00 | +++ (≥350) | > 6.00 |  |  |  |  |  |  | COc1ncc(C2CCC2)cc1CN[C@H]1[C@H](C(C)(C)C)[C@@H](C(=O)O)N(C(=O)[C@@H]2CCCCO2)[C@H]1c1ccccc1C [II-585]
100 to 200% | 5.00 to 6.00 | +++ (≥350) | 5.00 to 6.00 |  |  |  |  |  |  | COc1cnc(C2CC3CCC2C3)cc1CN[C@H]1[C@H](C(C)(C)C)[C@@H](C(=O)O)N(C(=O)C2CCCCC2)[C@H]1c1ccccc1 (stereo partly shown) [II-403]
< 100% | 5.00 to 6.00 | ++ (≥150 and <350) | 5.00 to 6.00 |  |  |  |  |  |  | COc1ncc(C(F)(F)F)cc1CN[C@H]1[C@H](C(C)(C)C)[C@@H](C(=O)O)N(C(=O)[C@H]2CCCCO2)[C@H]1c1cccnc1N(C)C [II-478]
 | 5.00 to 6.00 |  | 5.00 to 6.00 | +++ (≥350) | 100 to 200% |  |  |  |  | COc1ncc(C(F)(F)F)cc1CN[C@H]1[C@H](C(C)(C)C)[C@@H](C(=O)O)N(C(=O)[C@@H]2CCCCO2)[C@H]1c1cccnc1N(C)C [Example I-208]
100 to 200% | 5.00 to 6.00 | +++ (≥350) | 5.00 to 6.00 |  |  |  |  |  |  | COc1ccc(SC(F)(F)F)cc1CN[C@H]1[C@H](C(C)(C)C)[C@@H](C(=O)O)N(C(=O)C2CCCCC2)[C@H]1c1cccnc1OC [II-527]
100 to 200% | 5.00 to 6.00 | +++ (≥350) | 5.00 to 6.00 |  |  |  |  |  |  | COc1ccc(C(C)(C)C)cc1CN[C@H]1[C@H](C(C)(C)C)[C@@H](C(=O)O)N(C(=O)[C@H]2CCCO2)[C@H]1c1ccccc1 [II-322]

Reference: patent US20180099931A1 (AbbVie S.à.r.l., priority 2016, published 2018)
